Our source for the EC50 values is patent publication US8664234B2, “Dihydrobenzoquinazolinone M1 receptor positive allosteric modulators” (Merck Sharp & Dohme Corp., priority 2010, dated 2014).

In the experiment the target is T1, acetylcholine muscarinic M1 receptor (CHOnfat/hM1 cells) (Homo sapiens, UniProt P11229).
T1 construct: expressed in transfected cells; host or cells: CHOnfat cells (CHO; also called CHOK1/hM1)
T1 sequence (P11229 1-460): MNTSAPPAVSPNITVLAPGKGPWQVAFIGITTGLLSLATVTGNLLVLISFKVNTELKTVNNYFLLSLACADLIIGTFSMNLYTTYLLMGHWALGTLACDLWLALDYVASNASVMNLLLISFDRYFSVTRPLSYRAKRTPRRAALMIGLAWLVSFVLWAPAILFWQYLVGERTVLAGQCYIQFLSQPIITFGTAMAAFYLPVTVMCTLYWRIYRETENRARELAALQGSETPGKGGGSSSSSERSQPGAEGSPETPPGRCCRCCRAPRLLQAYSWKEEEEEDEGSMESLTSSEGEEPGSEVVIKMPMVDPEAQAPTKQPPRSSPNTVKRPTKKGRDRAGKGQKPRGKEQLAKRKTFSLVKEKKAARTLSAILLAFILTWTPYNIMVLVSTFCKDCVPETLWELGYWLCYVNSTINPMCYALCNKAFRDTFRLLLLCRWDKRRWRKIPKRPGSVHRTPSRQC
Description: FLIPR intracellular calcium assay for M1 positive allosteric modulator activity (acetylcholine EC20, 3 nM). In kind it is cell-based. Particulars: 4 min preincubation, then EC20 acetylcholine (3 nM final), FLIPR Ca2+ readout, read-out: IP Value (inflection point). The protocol:
The assay studies the effect of one or several concentrations of test compounds on basal or acetylcholine-stimulated. Ca^2+ levels using FLJPR.
Compounds are prepared and subjected to a preincubation period of 4 min. Thereafter, a single EC20 concentration of acetylcholine is added to each well (3 nM final). The intracellular Ca^2+ level of each sample is measured and compared to an acetylcholine control to determine any modulatory activity.
Cells: CHOnfat/hM1, hM2, hM3 or hM4 cells are plated 24 hr before the assay at a density of 18,000 cells/well (100 μL) in a 384 well plate. CHOnfat/hM1 and CHOnfat/hM3 Growth Medium: 90% DMEM (Hi Glucose); 10% HI FBS; 2 mM L-glutamine; 0.1 mM NEAA; Pen-Strep; and 1 mg/ml Geneticin, are added. For M2Gqi5CHOnfat and M4Gqi5CHOnfat cells, an additional 600 ug/ml hygromycin is added.
Equipment: 384 well plate, 120 μL addition plate; 96-well Whatman 2 ml Uniplate Incubator, 37° C., 5% CO2; Skatron EMBLA-384 Plate Washer; Multimek Pipetting System; Genesis Freedom 200 System; Mosquito System; Temo Nanoliter Pipetting System; and FLIPR^384 Fluorometric Imaging Plate Reader System are used.
Buffers. Assay Buffer: Hanks Balanced Salt Solution, with 20 mM Hepes, 2.5 mM Probenecid (Sigma P-8761) first dissolved in 1 N NaOH, 1% Bovine Serum Albumin (Sigma A-9647). Dye Loading Buffer: Assay Buffer plus 1% Fetal Bovine Serum and Fluo-4AM/Pluronic Acid Mixture. 2 mM Fluo-4AM ester stock in DMSO (Molecular Probes F-14202) Concentration of 2 μM in buffer for a final concentration of 1 μM in Assay. 20% Pluronic Acid Solution stock, with concentration of 0.04% in Buffer, 0.02% in Assay.
65 μL of 2 mM Fluo-4AM are mixed with 130 μL of 20% Pluronic Acid. The resulting solution and 650 μL FBS is added to the assay buffer for a total volume of 65 mL. Positive Controls: 4-Br-A23187: 10 mM in DMSO; final concentration 10 μM. Acetylcholine: 10 mM in water, working stock at both 20 μM and 30 μM in assay buffer, final concentration of 10 μM. This is used to check the maximum stimulation of the CHOK1/hM1 cells, 20 μM (2×) acetylcholine is added in the preincubation part of the assay, and the 30 μM (3×) stock is added in the second part. (EC20) Acetylcholine: 10 mM in water, working stock of 9 nM (3×), and final concentration in assay is 3 nM. This is used after the preincubation with test compounds. Addition of the EC20 Acetylcholine to each well with a test compound will ascertain any modulator activity. 24 wells contain 3 nM Acetylcholine alone as a control.
Determining Activity of Putative Compounds:
Screening Plate Compounds are titrated in 96-well plates (columns 2-11), 100% DMSO, started at a concentration of 15 mM (150× stock concentration), and 3-fold serial dilutions using Genesis Freedom200 System. Four 96-well plates are combined into a 384-well plate using Mosquito Nanoliter Pipetting System by transferring 1 μl of serial diluted compounds to each well, and 1 mM acetylcholine (100× stock concentration) were added as a control. Using Temo, 49 μl assay buffer is added to each well of the 384-well plate right before assay.
In a 96-well Whatman 2 ml Uniplate, 9 nM Acetylcholine (3×) is pipetted into wells corresponding to the screening compounds, and into control wells. The 30 μM acetylcholine control (3×) is added into control wells, and the 3× agonist plate is transferred into a 384 well plate.
Cells are washed three times with 100 μL of buffer, leaving 30 μL of buffer in each well. Using Multimek, 30 μL of Dye Loading Buffer is added into each well and incubated at 37° C., 5% CO2 for up to one hr.
After 60 min, the cells are washed three times with 100 μL of buffer, leaving 30 μL of buffer in each well. The cell plate, screening plate, and agonist addition plates are placed on the platform in the FLIPR and the door closed. A signal test to check background fluorescence and basal fluorescence signal is performed. Laser intensity is adjusted if necessary. […]
(In general: Calcium assays in cells follow changes in intracellular calcium, usually with a dye or a luminescent sensor.)

For `Cn1ccc2c(Cc3cc4c(c5ccccc35)NCN([C@H]3CCOC[C@@H]3O)C4=O)cccc21` [Example 1, 1,5-Anhydro-2,3-dideoxy-3-{6-[(1-methyl-1H-indol-4-yl)methyl]-4-oxo-1,4-dihydrobenzo[h]quinazolin-3 (2H)-yl}-L-threo-pentitol], the EC50 was 15 nM.

Consider `CN1CN([C@H]2CCOC[C@@H]2O)C(=O)c2cc(Cc3ccc(Cl)nc3)c3ccccc3c21` [Example 2, 1,5-Anhydro-3-{6-[(6-chloropyridin-3-yl)methyl]-1-methyl-4-oxo-1,4-dihydrobenzo[h]quinazolin-3(2H)-yl}-2,3-dideoxy-L-threo-pentitol], for which the EC50 is 6.3 nM. The result for `CSc1ccc(Cc2cc3c(c4ccccc24)NCN([C@H]2CCOC[C@@H]2O)C3=O)cn1` [Example 3, 1,5-Anhydro-2,3-dideoxy-3-[6-{[6-(methylsulfanyl)pyridin-3-yl]methyl}-4-oxo-1,4-dihydrobenzo[h]quinazolin-3(2H)-yl]-L-threo-pentitol] reads 11.5 nM. The figure for `Cc1ccc(Cc2cc3c(c4ccccc24)N(C)CN([C@H]2CCCC[C@@H]2O)C3=O)cn1` [Example 4, 3-[(1S,2S)-2-Hydroxycyclohexyl]-1-methyl-6-[(6-methylpyridin-3-yl)methyl]-2,3-dihydrobenzo[h]quinazolin-4(1H)-one] is 4 nM; for `CCCN1CN([C@H]2CCCC[C@@H]2O)C(=O)c2cc(Cc3ccc(C)nc3)c3ccccc3c21` [Example 5, 3-[(1S,2S)-2-Hydroxycyclohexyl]-6-[(6-methylpyridin-3-yl)methyl]-1-propyl-2,3-dihydrobenzo[h]quinazolin-4(1H)-one] it is 1170 nM; for `CN1CN([C@H]2CCOC[C@@H]2O)C(=O)c2cc(Cc3ccnc(CF)c3)c3ccccc3c21` [Example 6, 1,5-Anhydro-2,3-dideoxy-3-[6-{[2-(fluoromethyl)pyridin-4-yl]methyl}-1-methyl-4-oxo-1,4-dihydrobenzo[h]quinazolin-3 (2H)-yl]-L-threo-pentitol] it is 2.7 nM. Regarding `CN1CN([C@H]2CCOC[C@@H]2O)C(=O)c2cc(Cc3ccnc(C(F)F)c3)c3ccccc3c21` [Example 7, 1,5-anhydro-2,3-dideoxy-3-[6-{[2-(difluoromethyl)pyridin-4-yl]methyl}-1-methyl-4-oxo-1,4-dihydrobenzo[h]quinazolin-3(2H)-yl]-L-threo-pentitol], the EC50 was 2.6 nM.
